Here are results for 78 compounds from PubChem BioAssay AID504539 (Broad Institute, 2011).

Values joined by “and” are separate entries in the source; they are usually repeats but may differ in a detail not shown here. Identical values can stand only once. Active and inactive are the calls of the source. No rule for the calls is given here.

In general, AC50 refers to the concentration at which the activity in the assay is half-maximal.

In one assay the test system is Cell-based prion protein 5' UTR reporter, plate reader. Put plainly: prion protein 5' UTR mRNA inhibitors – cell-based, plate reader, cherry-picked samples, dose response (AID 504539).
Conditions: not given
In the case of `Cc1ccc(C(=O)Nc2ncc(Cc3ccc(SC(F)F)cc3)s2)cc1`, the AC50 was 1560 nM.
On to `COc1ccccc1-c1nnc2sc(-c3cc4ccccc4o3)nn12`, for which the AC50 is 4300 nM.
Same read-out and setting: next, `COc1cc(C2c3cc4c(cc3OC(NNC(N)=O)C2C)OCO4)cc(OC)c1OC` (stereo not drawn): 822 nM.
Turning to `CCN(CC)c1ccc2cc(-c3nc4ccccc4[nH]3)c(=O)oc2c1`, the AC50 is 868 nM.
As to `Cc1ccc(/C=N/NC(=O)COc2ccccc2-c2ccccc2)cc1`, the AC50 is 172 nM.
`CC1CCCC=CC2CC(OC(=O)CN(C)C)CC2C(O)C=CC(=O)O1` (stereo not drawn): the AC50 was 126 nM.
As to `COc1cc(/C=C2\COC/C(=C\c3cc(OC)c(OC)c(OC)c3)C2=O)cc(OC)c1OC`, the AC50 was 788 nM.
As to `CCCOc1ccccc1C1CC(=O)Nc2cc3c(cc21)OCCO3` (stereo not drawn), the AC50 was 2900 nM.
Regarding `COc1ccc(/C=C2\SC(=S)N(CCCC(=O)NNC(=O)c3ccccc3O)C2=O)cc1`, the AC50 was 630 nM.
As to `COc1cc(SC)ccc1C(=O)Nc1ccc(Br)cn1`, the half-maximal activity concentration (AC50) is 500 nM.
With `NC1=C(Cl)C(=O)c2ccc(S(N)(=O)=O)cc2C1=O`, the half-maximal activity concentration (AC50) was 226 nM.
Still for that read-out and setting: the value for `C[C@H]1O[C@@H](OC2CC[C@]3(C=O)[C@H]4CC[C@]5(C)[C@@H](C6=CC(=O)OC6)CC[C@]5(O)[C@@H]4CC[C@]3(O)C2)CC2OC(C)(C)OC21` (stereo partly drawn) was 123 nM.
The same measure, in the same setting: the value for `Cc1ccc2nc3sc(C(=O)N4CCOCC4)c(N)c3cc2c1` was 275 nM; that for `CN(c1ccc2nc3ccccc3c(=O)n2n1)C1CCCCC1` was 574 nM; that for `O=C(/C=C\Nc1ccc2c(c1)OCO2)c1ccccn1` was 173 nM.
`CCOCCOC(=O)c1[nH]c2c(c1C)C(=O)CC(c1cccs1)C2` (stereo not drawn): the AC50 was 1700 nM.
The same measure, in the same setting: next, `CC1=CC(C)CC(C)OC(=O)CC(c2ccc(O)cc2)NC(=O)C(Cc2c(Br)[nH]c3ccccc23)N(C)C(=O)C(C)NC(=O)C(C)C1` (stereo not drawn): 146 nM.
As to `O=C(NC1CCCCC1)c1n[nH]c2c1CCCCC2`, the AC50 is 759 nM.
For `Cc1ccc(C(=O)c2cc([N+](=O)[O-])ccc2N2CCOCC2)c(C)c1`, the AC50 is 2940 nM.
On to `CC(C)(C)c1ccc(C(=O)Nc2ccc(CC(=O)O)cc2)o1`, for which the AC50 was 312 nM.
Consider `c1ccc2nc(-c3ccc(N4CCOCC4)cc3)ccc2c1`, for which the AC50 is 385 nM.
On to `CC(C)Oc1ccc(C(=O)Nc2nc3ccccc3[nH]2)cc1`, for which the AC50 is 304 nM.
On the same count and under the same terms, the value for `CCc1ccn2cc(-c3cc(-c4ccccc4)no3)nc2c1` was 558 nM; that for `CCN(CC)c1ccc(-c2nn3c(-c4n[nH]c5c4CCC5)nnc3s2)cc1` was 986 nM; that for `COc1cc(-c2noc(C)c2/C=C/c2ccc(OC(C)=O)cc2)cc(OC)c1OC` was 555 nM.
Consider `CCC(C)(O)C(=O)OC1C(=O)OC2CC3C(C)=CC(=O)C(O)C3(C)C3C4(O)OCC23C1C(C)C4O` (stereo not drawn), for which the AC50 was 178 nM.
For the compound `CCOC(=O)COc1cccc2c(=O)n(CC(=O)NCc3ccc(F)cc3)ccc12`, the AC50 is 1540 nM.
For the compound `COC(=O)c1ccccc1NC(=O)Cn1c(-c2nonc2N)nc2ccccc21`, the AC50 is 605 nM.
For the compound `O=[N+]([O-])c1nn(-c2ccc3c(c2)OCCO3)n(O)c1=Nc1ccccc1`, the AC50 is 180 nM.
Consider `CC(C)(C)C(=O)Nc1ccc(NC(=O)c2ccco2)nc1`, for which the AC50 was 244 nM.
`Cc1c(C(=O)OCC(C)C)[nH]c2c1C(=O)CC(c1ccco1)C2` (stereo not drawn): the AC50 was 1260 nM.
Turning to `O=C1C(=C2SCCCS2)CC/C1=C\c1ccc(F)cc1`, the concentration at half-maximal activity (AC50) was 292 nM.
As for `O=C(Nc1nc2cc3c(cc2s1)OCCO3)c1ccco1`, the half-maximal activity concentration (AC50) is 234 nM.
Regarding `Cc1ccsc1/C=N/Nc1cccc(C(=O)O)c1`, the AC50 was 355 nM.
Take `COc1cccc2c1C(=O)c1c(O)c3c(c(O)c1C2=O)C[C@@](O)(C(=O)CO)C[C@@H]3O[C@H]1C[C@H](N)[C@H](O)[C@H](C)O1`: the AC50 is 650 nM.
For the compound `O=C(Nc1cc2ccccc2oc1=O)c1ccccc1`, the concentration at half-maximal activity (AC50) is 696 nM.
As for `COc1ccc(C(=O)Nc2nc3ccccc3s2)c(OC)c1`, the AC50 is below 38 nM.
Regarding `CCCN1C=CC(=C2C(=O)c3ccccc3C2=O)C=C1`, the AC50 was 169 nM.
On to `Cc1cc(C(=O)CSc2nnc3ccccn23)c(C)n1-c1ccccc1`, for which the AC50 was 480 nM.
For `CC/C=C/CC(=O)N[C@@H](c1ccccc1)[C@@H](O)C(=O)O[C@H]1C[C@@]2(O)[C@@H](OC(=O)c3ccccc3)C3[C@](C)(C(=O)[C@H](OC(C)=O)C(=C1C)C2(C)C)[C@@H](O)C[C@H]1OC[C@@]31OC(C)=O` (stereo partly drawn), the AC50 was 368 nM.
For the compound `Cc1cccc(-n2ncc3c(N(C)C4CCCCC4)ncnc32)c1`, the concentration at half-maximal activity (AC50) was 796 nM.
On to `CCOc1ccc(NC(=O)Nc2cccc(C(=O)O)c2)cc1`, for which the AC50 was 136 nM.
Take `CCOC(=O)c1ccc(NC(=O)Nc2ccon2)cc1`: the half-maximal activity concentration (AC50) is 596 nM.
Same read-out and setting: next, `COc1cccc2c1C(=O)c1c(O)c3c(c(O)c1C2=O)CC(O)(C(=O)CO)CC3OC1CC(N(C)C)C(O)C(C)O1` (stereo not drawn): 130 nM; `COCCn1c(C)cc(C2=NNC(=NC3CC3)SC2)c1C`: below 38 nM; `NC(=S)c1cn(C2OC(CO)C(O)C2O)c2ncnc(N)c12` (stereo not drawn): 1810 nM.
For `Cc1c(C(=O)OCCOC(C)C)[nH]c2c1C(=O)CC(c1ccco1)C2` (stereo not drawn), the AC50 is 450 nM.
The same measure, in the same setting: the value for `C[C@H]1CCC/C=C/[C@@H]2C[C@H](O)C[C@H]2[C@H](O)/C=C/C(=O)O1` was 72 nM and 51 nM.
Consider `S=C(Nc1ccccc1)Nc1ccc(OCc2ccc(Cl)cc2Cl)cc1`, for which the AC50 was 355 nM.
The same measure, in the same setting: the value for `COc1cc2c(c(OC)c1OC)-c1ccc(O)c(=O)cc1C(NC(C)=O)CC2` (stereo not drawn) was 160 nM; that for `COc1ccc(C(=O)O/N=C(\N)c2ccccn2)cc1` was 99 nM; that for `Cc1cc(C2=NNC(=NC3CC3)SC2)c(C)n1-c1ccccc1` was below 38 nM.
For `O=C(Nc1ccc([N+](=O)[O-])cc1)C(=O)Nc1cccc(C(=O)O)c1`, the concentration at half-maximal activity (AC50) is 164 nM.
Turning to `COC(=O)c1[nH]c2c(c1C)C(=O)CC(c1cccc(OC)c1)C2` (stereo not drawn), the AC50 is 715 nM.
`CC1CCOC(=O)C=CC=CC(=O)OC2CC3OC4C5OC5(C)C(O)CC4(COC(=O)C1O)C2(C)C31CO1` (stereo not drawn): the AC50 is 148 nM.
`COc1cc(C(=O)N2CCN(c3cccc(C)c3C)CC2)cc(OC)c1OC`: the AC50 was 1410 nM.
For the compound `Cc1cc(/C=N/Nc2ncnc(N)c2[N+](=O)[O-])c(C)n1-c1ccccc1`, the AC50 is 636 nM.
As for `O=C(c1ccc(Br)cc1)c1cc([N+](=O)[O-])ccc1N1CCCCC1`, the AC50 is 628 nM.
As to `C[C@]12CC[C@H](O)C[C@H]1CC[C@@H]1[C@@H]2C[C@@H](O)[C@]2(C)[C@@H](C3=CC(=O)OC3)CC[C@]12O`, the AC50 is 374 nM.
As to `Cc1nc(SCC(=O)Nc2nccs2)c(C#N)c(C)c1C`, the AC50 is 991 nM.
With `CC(=O)OC1C(=O)OCC23CCC4(C)OC4C2OC2CC(OC(=O)C=CC=CC(=O)OCCC1C)C3(C)C21CO1` (stereo not drawn), the AC50 was below 38 nM.
Regarding `CC(=O)O[C@H]1C(=O)[C@]2(C)[C@H]([C@H](OC(=O)c3ccccc3)[C@]3(O)C[C@H](OC(=O)[C@H](O)[C@@H](NC(=O)c4ccccc4)c4ccccc4)C(C)=C1C3(C)C)[C@]1(OC(C)=O)CO[C@@H]1C[C@@H]2O`, the AC50 is 188 nM.
On the same count and under the same terms, next, `Cn1ncnc2c(=O)n(C)c(=O)nc1-2`: 135 nM; `CC1CC(C)(O)CC(C(O)CC2CC(=O)NC(=O)C2)C1=O` (stereo not drawn): 493 nM.
On the same count and under the same terms, next, `Cc1cc(C)c(S(=O)(=O)Nc2ccc3c4c(cccc24)CC3)c(C)c1`: 1900 nM; `Cc1ccc(NC(=O)c2cc3ccccc3oc2=O)cc1S(=O)(=O)N(C)C`: below 38 nM; `Cc1ccc(-c2cn3cc(C)ccc3n2)cc1`: 113 nM.
Consider `Cc1nc2cc(-c3ccccc3)sc2c(=O)n1N`, for which the AC50 is 284 nM.
Take `CC1=CC2OC3CC4OC(=O)C=CC=CC(C(C)O)OCC(O)C5(C)OC5C(=O)OCC2(CC1O)C4(C)C31CO1` (stereo not drawn): the AC50 was 95 nM.
`O=C(Nc1nccs1)c1cc2c(s1)CCCCC2`: the AC50 was 128 nM.

System in the next assay: not listed separately
Described as above. The following applies: Cell-based prion protein 5' UTR reporter, plate reader; at 5 µM (top of the series).
As for `Cn1nnc2cc(C(=O)NC3CCCCC3)ccc21`, the activity change, negative = inhibition is 46.3% (inactive).
As to `O=C(NNC(=O)c1cccs1)c1ccco1`, the activity change, negative = inhibition was 6.33% (inactive).
The same measure, in the same setting: next, `COc1ccc(Nc2nc(-c3c(C)nc4ncccn34)cs2)cc1`: -31.6% (inactive); `Cc1ccc(S(=O)(=O)Nc2nc3ccccc3s2)cc1[N+](=O)[O-]`: 25.2% (inactive).
In the case of `CCOc1ccc(C2=Nn3c(nnc3-c3ccccc3OC)SC2)cc1`, the activity change, negative = inhibition is -38.1% (inactive).
On the same count and under the same terms, the value for `N#Cc1cn(C2OC(CO)C(O)C2O)c2ncnc(N)c12` (stereo not drawn) was -30.1% (inactive); that for `O=C(NN1C(=O)C2C3C=CC(C4CC34)C2C1=O)c1ccc(Br)cc1` (stereo not drawn) was 108% (inactive).
In the case of `CCc1ccc(/C=C2\SC(=S)N(CCCC(=O)Nc3ccccn3)C2=O)cc1`, the activity change, negative = inhibition is -23.5% (inactive).
